Here are results for 3 compounds from patent US20140329755A1, “COMBINATION THERAPY FOR THE TREATMENT OF ARRHYTHMIAS OR HEART FAILURE” (Gilead Sciences, Inc., priority 2013, published 2014).

Read-outs that look alike come from different tables or passages of the source.

Assay [1] has as its system isolated rat right atria. As to the kind of experiment: ATX-II-induced AF in isolated rat right atria. The note with it: 3 μmol/L ranolazine, 100 nmol/L GS967, 300 nmol/L KN-93, 300 nmol/L AIP, alone or combined; FIG. 1. As for the experimental part: (§1) Rats were anesthetized by intraperitoneal injection of 60 mg/kg ketamine and 8 mg/kg xylazine. The heart was rapidly removed and immersed in oxygenated Krebs-Henseleit buffer (in mmol/L: 118 NaCl, 4.8 KCl, 1.2 KH2PO4, 2.5 CaCl2, 1.2, MgSO4, 2 pyruvic acid, 5.5 glucose, 0.5 Na2EDTA, and 25 NaHCO3, pH 7.4). Rat right atria were quickly excised and suspended in a chamber of the Danish Myo Technologies (DMT) myograph containing 8 ml of oxygenated Krebs-Henseleit buffer. Mechanical and electrical changes were measured simultaneously in spontaneously beating atria. Isometric tension was recorded by a force transducer connected to a PowerLab data acquisition system (AD Instruments, Colorado Springs, Colo.). A bipolar electrode was attached to the surface of the atrium to record an electrogram. After stabilization, the atria were preincubated with a late INa inhibitor (0.1 μmol/L GS967 or 3 μmol/L ranolazine), a CaMKII inhibitor ((0.3 μmol/L AIP or 0.3 μmol/L KN-93) or their combination for 30 min, then treated with 50 nmol/L ATX-II to induce arrhythmias and diastolic dysfunction.
(§2) Isolated right atria beat spontaneously at a rate of 298+12 bpm. ATX-II induced premature beats, tachyarrhythmia and fibrillation in rat isolated right atria. Arrhythmias were recorded for 30 min following ATX-II treatment, and quantified using an arbitrary numerical grading of perceived severity as described previously (32) and shown in Table 1.

Assay [2] relates to isolated rat right atria. Nature of the assay: ATX-II-induced arrhythmias in spontaneously beating isolated rat right atria (arrhythmia score). Conditions: for IC50: isolated rat right atria, read-out: IC50, prevention of ATX-II induced arrhythmias and diastolic dysfunction. As for the experimental part:
as §1, §2

Assay [3] concerns isolated rat right atria. Nature of the assay: ATX-II-induced increase of diastolic tension in isolated rat right atria. The note with it: 3 μM RAN, 0.1 μM GS-967, 0.3 μM KN-93, 0.3 μM AIP, alone or combined, 50 nmol/L ATX-II. As for the experimental part: as §1
The test system of assay [4] is isolated ventricular myocytes and hearts. The note with it: cited from earlier work.
Assay [5] deals with late INa. Conditions: cited from earlier work.
Assay [6] concerns late INa. The note with it: isolated hearts; read-out: IC50, ATX-II-induced late INa; cited from earlier work.
For assay [7], the target named is peak INa (Homo sapiens, UniProt Q14524). The note with it: cited from earlier work.
For assay [8], the system named is isolated rat atrial myocytes. Nature of the assay: ATX-II-induced diastolic Ca2+ increase in isolated rat atrial myocytes. Conditions: 100 nmol/L GS967, 300 nmol/L AIP, alone or combined; FIG. 3. The format is cell-based. How it is done: Adult male rats were anesthetized and hearts were rapidly removed and perfused in a retrograde mode (Langendorff preparation) with a modified Tyrode solution containing (in mmol/L): NaCl (135), KCl (4.6), MgCl2 (1.1), NaH2PO4 (1) glucose (10), HEPES (10), pH 7.4. Hearts were perfused for 5 min with a nominal Ca^2+-free Tyrode solution, then with a low Ca^2+ (2 µmol/L) solution containing 0.896 mg/ml collagenase type II (Worthington, USA) and 0.68 mg/ml bovine serum albumin (BSA) for 8-11 min at 37° C. […]
[Molecular Probes, USA], indo-1 AM [Molecular Probes] or 5 μmol/L Asante NaTRIUM Green 2 AM (Teflabs, USA) by incubation for 25 min at 23° C. in bath solution containing 1.0 mmol/L Ca^2+, and 2.5 μmol/L pluronic acid (Molecular Probes). Fluo-4 was excited at 488 nm, and the fluorescence was acquired at wavelengths >505 nm in the line scan mode or XY mode of the confocal system. Asante NaTRIUM Green 2 was excited at 543 nm, and fluorescence was acquired at wavelengths >560 nm in the XY scan mode. Intracellular calcium concentrations were monitored in electrically stimulated cells loaded with indo-1 AM using an IonOptix spectrophotometer (IonOptix, Milton, Mass.). […] Emitted fluorescence (405 nm and 485 nm) was detected by a photomultiplier tube. […] Fluorescent images were analyzed using ImageJ software (NIH) and Origin 8.1 (OriginLab, USA).

The mark [9] stands for this setting: 3 μM RAN, 0.1 μM GS-967, 0.3 μM KN-93, 0.3 μM AIP, alone or combined, 30 min preincubation, then 50 nmol/L ATX-II.
Where [10] appears, read: Rattus norvegicus, 3 μM RAN, 0.1 μM GS-967, 0.3 μM KN-93, 0.3 μM AIP, alone or combined, 30 min preincubation, then 50 nmol/L ATX-II, read-out: measured % Inhibition of ATX-II-induced arrhythmias.
[11] abbreviates: Rattus norvegicus, read-out: Measured % Inhibition of ATX-II-induced increase of diastolic tension.

Sequence of peak INa (Q14524 whole entry, the tested form may be a part): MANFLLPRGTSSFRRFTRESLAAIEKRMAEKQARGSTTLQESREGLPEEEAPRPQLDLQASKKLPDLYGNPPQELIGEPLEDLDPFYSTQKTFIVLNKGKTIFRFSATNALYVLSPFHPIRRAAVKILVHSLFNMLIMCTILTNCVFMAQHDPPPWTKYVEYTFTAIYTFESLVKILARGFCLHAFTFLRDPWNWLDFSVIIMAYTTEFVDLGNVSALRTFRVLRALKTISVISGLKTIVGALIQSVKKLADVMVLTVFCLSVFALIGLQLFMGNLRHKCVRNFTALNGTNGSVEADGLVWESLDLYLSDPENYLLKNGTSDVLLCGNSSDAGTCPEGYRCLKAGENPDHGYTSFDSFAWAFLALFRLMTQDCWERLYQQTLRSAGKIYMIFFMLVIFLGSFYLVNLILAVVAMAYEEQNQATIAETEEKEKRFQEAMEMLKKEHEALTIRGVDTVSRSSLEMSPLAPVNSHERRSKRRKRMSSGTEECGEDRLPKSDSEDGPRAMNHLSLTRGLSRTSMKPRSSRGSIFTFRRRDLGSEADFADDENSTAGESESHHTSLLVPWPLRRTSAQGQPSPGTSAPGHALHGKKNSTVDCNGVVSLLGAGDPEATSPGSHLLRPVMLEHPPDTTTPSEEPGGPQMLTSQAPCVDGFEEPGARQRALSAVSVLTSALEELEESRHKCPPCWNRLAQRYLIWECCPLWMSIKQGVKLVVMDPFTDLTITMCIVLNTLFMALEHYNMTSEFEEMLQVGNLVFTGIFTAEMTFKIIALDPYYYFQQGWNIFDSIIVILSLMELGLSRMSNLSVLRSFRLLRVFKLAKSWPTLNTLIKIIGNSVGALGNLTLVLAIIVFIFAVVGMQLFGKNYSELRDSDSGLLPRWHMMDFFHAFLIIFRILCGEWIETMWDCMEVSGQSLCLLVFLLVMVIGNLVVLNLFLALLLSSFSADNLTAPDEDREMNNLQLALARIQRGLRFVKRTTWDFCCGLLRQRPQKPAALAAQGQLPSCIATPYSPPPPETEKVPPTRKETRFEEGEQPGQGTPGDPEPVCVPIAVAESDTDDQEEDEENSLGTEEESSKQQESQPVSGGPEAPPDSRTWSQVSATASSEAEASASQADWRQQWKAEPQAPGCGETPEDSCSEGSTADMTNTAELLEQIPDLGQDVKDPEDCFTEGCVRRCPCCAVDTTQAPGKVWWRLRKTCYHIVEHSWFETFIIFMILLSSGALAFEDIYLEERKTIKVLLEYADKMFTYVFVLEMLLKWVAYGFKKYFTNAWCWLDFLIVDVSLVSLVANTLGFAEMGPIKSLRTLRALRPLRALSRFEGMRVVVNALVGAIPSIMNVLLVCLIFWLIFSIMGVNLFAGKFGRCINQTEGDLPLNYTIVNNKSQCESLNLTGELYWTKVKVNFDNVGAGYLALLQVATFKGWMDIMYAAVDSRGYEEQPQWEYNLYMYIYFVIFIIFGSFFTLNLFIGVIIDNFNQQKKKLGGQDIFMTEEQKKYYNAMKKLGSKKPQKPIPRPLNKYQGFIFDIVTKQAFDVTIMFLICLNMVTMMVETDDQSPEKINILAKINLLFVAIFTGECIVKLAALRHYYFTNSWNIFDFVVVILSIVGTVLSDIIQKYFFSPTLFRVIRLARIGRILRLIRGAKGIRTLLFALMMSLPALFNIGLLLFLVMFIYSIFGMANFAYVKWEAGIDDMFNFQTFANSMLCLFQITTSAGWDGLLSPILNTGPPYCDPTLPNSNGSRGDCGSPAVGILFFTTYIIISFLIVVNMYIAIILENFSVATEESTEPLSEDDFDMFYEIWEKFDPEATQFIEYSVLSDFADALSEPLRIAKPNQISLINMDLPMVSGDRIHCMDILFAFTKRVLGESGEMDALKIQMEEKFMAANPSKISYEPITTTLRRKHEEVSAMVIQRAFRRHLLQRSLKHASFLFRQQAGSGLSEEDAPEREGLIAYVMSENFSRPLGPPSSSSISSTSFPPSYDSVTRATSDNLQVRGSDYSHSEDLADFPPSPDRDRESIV

A word on the IC50: it is the concentration at which inhibition is half-maximal. With `COc1ccccc1OCC(O)CN1CCN(CC(=O)Nc2c(C)cccc2C)CC1` (racemic) [ranolazine, (±)—N-(2,6-dimethylphenyl)-4-[2-hydroxy-3-(2-methoxyphenoxy)-propyl]-1-piperazineacetamide], the “effect on ATX-II-induced AF” value in assay [1] was “failed to attenuate”. In addition, the “measured % Inhibition of ATX-II-induced arrhythmias” value in assay [2] (setting [9]) is listed as 28%; in assay [2] (3 μM RAN, 0.1 μM GS-967, 0.3 μM KN-93, 0.3 μM AIP, alone or combined, 30 min preincubation, then 50 nmol/L ATX-II, listed as RAN) it was 23.8 ± 3.1%. Also, the concentration for half-maximal inhibition (IC50) in assay [2] was 14.8 µM. Besides, the “Measured % Inhibition of ATX-II-induced increase of diastolic tension” value is 10.4% in assay [3] and 5.5 ± 1.5% in assay [3] (listed as RAN).

As a reminder, the inhibition is how much of the control response was suppressed. As to `FC(F)(F)Oc1ccc(-c2ccc3nnc(C(F)(F)F)n3c2)cc1` [GS-967, 6-[4-(trifluoromethoxy)phenyl]-3-(trifluoromethyl)[1,2,4]triazolo[4,3-a]pyridine], the “proarrhythmic effects (afterdepolarizations and torsades de pointes) of ATX-II and E-4031” value in assay [4] was “prevented and reversed”. Also, the IC50 in assay [5] (ventricular myocytes, read-out: IC50, ATX-II-induced late INa) was 0.13 µM; in assay [6], 0.21 µM; in assay [2], 1.29 µM. In addition, in assay [5] (vs flecainide or ranolazine), the “reduction of late INa and arrhythmias compared with flecainide or ranolazine” value was “more potent and effective”. The “effect on ATX-II-induced AF” value in assay [1] was “failed to attenuate”. The figures for the “Reduction of peak INa” value in assay [7] (holding potential of −120 mV) and in assay [7] (holding potential −80 mV) were “minimal” and “increased”, respectively. The “inhibition of the ATX-II-induced increase of diastolic Ca2+” value in assay [8] worked out at 13%. In addition, the “measured % Inhibition of ATX-II-induced arrhythmias” value in assay [2] (setting [9]) stood at 34.2 ± 4.8%. The inhibition at 0.1 µM in assay [2] (setting [10]) came out at 34%; in assay [3] (setting [11]), 9.1%.

As for `COc1ccc(S(=O)(=O)N(CCO)c2ccccc2CN(C)C/C=C/c2ccc(Cl)cc2)cc1` [KN-93], the “effect on ATX-II-induced AF” value in assay [1] is listed as “failed to attenuate”. Moreover, in assay [2] (setting [9]), the “measured % Inhibition of ATX-II-induced arrhythmias” value turned out to be 24.1 ± 7.6%. Besides, the inhibition at 0.3 µM was 23% in assay [2] (setting [10]) and 8.4% in assay [3] (setting [11]). Also, in assay [2] (rat right atria), the “effect on ATX-II induced arrhythmias and diastolic dysfunction” value was “prevented”.
